This is an account of results in ChEMBL document CHEMBL1201862, “PubChem BioAssay data set” (2004).

The source made the active and inactive calls. Cut-off read from the data, not from the text of the source, for most assays here: actives have a measured EC50 and inactives only a lower limit.

The target in assay [1] is T1, Rac GTPase-activating protein 1 (Homo sapiens, UniProt Q9H0H5).
T1 sequence (Q9H0H5 whole entry): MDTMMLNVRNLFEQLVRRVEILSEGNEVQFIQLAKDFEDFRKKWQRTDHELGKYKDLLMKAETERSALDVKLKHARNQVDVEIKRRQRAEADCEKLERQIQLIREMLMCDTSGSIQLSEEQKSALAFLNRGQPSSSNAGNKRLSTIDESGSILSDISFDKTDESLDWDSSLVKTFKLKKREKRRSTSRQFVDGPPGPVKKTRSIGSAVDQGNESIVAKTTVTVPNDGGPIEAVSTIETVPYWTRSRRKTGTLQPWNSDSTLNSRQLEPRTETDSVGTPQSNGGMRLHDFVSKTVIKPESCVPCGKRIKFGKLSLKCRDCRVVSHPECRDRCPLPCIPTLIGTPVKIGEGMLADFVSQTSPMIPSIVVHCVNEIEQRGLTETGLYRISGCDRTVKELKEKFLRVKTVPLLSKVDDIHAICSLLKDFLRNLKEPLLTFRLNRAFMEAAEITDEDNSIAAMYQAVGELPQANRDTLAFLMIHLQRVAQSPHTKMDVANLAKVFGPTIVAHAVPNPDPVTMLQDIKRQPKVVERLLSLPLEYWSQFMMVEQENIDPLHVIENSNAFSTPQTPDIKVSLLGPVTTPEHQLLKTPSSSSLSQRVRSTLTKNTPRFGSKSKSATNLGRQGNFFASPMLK
Kind of assay: blockers of MgcRacGAP-driven Rac1 GTP hydrolysis – biochemical, ADP Hunter fluorescence, primary and confirmatory, confirmation (AID 624330). The assay is classed as functional.

For another assay, the target named is Cytochrome P450 2C9 (Homo sapiens, UniProt P11712).
Assay [2] concerns the target FAD-linked sulfhydryl oxidase ALR (Homo sapiens, UniProt P55789). Kind of assay: ALR-catalysed DTT oxidation blockers – biochemical, H2O2 detection, luminescence, cherry-pick, dose response (AID 493248).
Assay [3] can be described thus: luciferase reporter signal suppression in cells – H4 neuroglioma cells, luminescence, dose response (AID 1990). The assay is classed as functional, cell-based. In general terms: In a reporter assay the amount or activity of a reporter protein is the signal.
Assay [4] can be described thus: Luminescence Cell-Based Dose Response HTS to Identify Inhibitors of 5'UTR Stem-Loop Driven Prion Protein mRNA Translation in H4 Neuroglioblastoma Cells. [Related pubchem assays: 1827 (Project Summary), 1813 (Primary HTS)]. The assay is classed as functional.
Assay [5] in a line: alpha-synuclein stem-loop luciferase translation blockers – H4 neuroglioma cells, luminescence, confirmation (AID 1988). The assay is classed as functional, cell-based.
The target of a further assay is T2, Streptokinase A (Streptococcus pyogenes serotype M1, UniProt P10520).
T2 sequence (P10520 whole entry): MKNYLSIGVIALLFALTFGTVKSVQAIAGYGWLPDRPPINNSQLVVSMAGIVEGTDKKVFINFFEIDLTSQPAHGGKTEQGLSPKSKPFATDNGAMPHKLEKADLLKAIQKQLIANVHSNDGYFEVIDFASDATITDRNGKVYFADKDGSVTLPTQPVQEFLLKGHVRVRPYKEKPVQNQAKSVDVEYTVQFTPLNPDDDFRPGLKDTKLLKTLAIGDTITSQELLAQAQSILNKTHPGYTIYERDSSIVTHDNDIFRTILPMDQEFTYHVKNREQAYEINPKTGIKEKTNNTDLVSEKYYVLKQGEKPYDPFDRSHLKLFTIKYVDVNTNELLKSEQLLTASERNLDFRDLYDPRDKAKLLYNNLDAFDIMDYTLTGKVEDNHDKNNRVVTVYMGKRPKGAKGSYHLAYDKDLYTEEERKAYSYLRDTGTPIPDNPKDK
The assay can be described thus: viability-normalized secreted streptokinase activity reduction – plasminogen activation absorbance, OD405, dose response (AID 1914).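 Note: secreted streptokinase activity via plasminogen activation per viability signal from cell pellet.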 The assay is classed as functional, Streptococcus pyogenes M1 GAS.

For another assay, the system named is Streptococcus. The assay can be described thus: GAS UMAA2166 growth inhibition – luminescence, BacTiterGlo, counter-screen for streptokinase expression inhibitor project, dose response (AID 1915).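 Note: potency for reduction of bacterial viability or growth.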 The assay is classed as functional, organism-based. In general terms: A counterscreen serves to expose hits that act by an unwanted route or on another target.
Assay [6] deals with Streptococcus sp. 'group A'. Kind of assay: Streptococcus pyogenes SK(-)GAS viability under kanamycin – luminescence, BacTiterGlo, confirmation, counter-screen for streptokinase expression inhibitor project, dose response (AID 1900). The assay is classed as functional, organism-based.
A short description of assay [7]: viability of uninfected HEp-2 cells – cell-based, HTS, cytotoxicity control for RSV inhibitor project, dose response (AID 2410). The assay is classed as functional. Particulars: human respiratory syncytial virus.
Assay [8] can be described thus: Luminescence Cell-Based Dose Response HTS to Identify Activators of Luciferase Translation or Activity in H4 […] Cells. [Related pubchem assays: 1829 (Project Summary), 1814 (Primary HTS)]. The assay is classed as functional.
The next assay relates to H4. Kind of assay: Luminescence Cell-Based Dose Response HTS to Identify Activators of 5'UTR Stem-Loop Driven Prion Protein mRNA Translation in H4 Neuroglioblastoma Cells. [Related pubchem assays: 1829 (Project Summary), 1814 (Primary HTS)]. The assay is classed as functional. Particulars: Homo sapiens.
A further assay addresses Cytochrome P450 3A4 (Homo sapiens, UniProt P08684).

FAD-linked sulfhydryl oxidase ALR, sequence (P55789 whole entry): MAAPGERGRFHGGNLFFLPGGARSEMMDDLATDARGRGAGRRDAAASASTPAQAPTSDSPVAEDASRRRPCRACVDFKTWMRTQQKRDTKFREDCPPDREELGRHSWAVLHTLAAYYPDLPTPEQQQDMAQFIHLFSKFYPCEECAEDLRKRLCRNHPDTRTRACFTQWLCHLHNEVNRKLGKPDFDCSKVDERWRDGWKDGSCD
Cytochrome P450 2C9, sequence (P11712 whole entry): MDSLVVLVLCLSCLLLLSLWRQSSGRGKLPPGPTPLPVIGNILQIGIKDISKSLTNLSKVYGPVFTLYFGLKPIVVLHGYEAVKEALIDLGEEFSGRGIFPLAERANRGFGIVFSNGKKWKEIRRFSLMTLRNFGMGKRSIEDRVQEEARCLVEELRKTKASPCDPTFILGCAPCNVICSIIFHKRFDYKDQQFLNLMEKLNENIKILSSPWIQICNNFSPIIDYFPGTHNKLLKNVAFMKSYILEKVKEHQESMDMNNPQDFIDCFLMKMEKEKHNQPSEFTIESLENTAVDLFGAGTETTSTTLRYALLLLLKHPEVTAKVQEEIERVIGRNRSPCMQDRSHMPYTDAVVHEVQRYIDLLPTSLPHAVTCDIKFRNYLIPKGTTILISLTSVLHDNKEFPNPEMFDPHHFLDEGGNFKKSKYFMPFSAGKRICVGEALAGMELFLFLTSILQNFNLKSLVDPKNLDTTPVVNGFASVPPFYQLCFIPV
Cytochrome P450 3A4, sequence (P08684 whole entry): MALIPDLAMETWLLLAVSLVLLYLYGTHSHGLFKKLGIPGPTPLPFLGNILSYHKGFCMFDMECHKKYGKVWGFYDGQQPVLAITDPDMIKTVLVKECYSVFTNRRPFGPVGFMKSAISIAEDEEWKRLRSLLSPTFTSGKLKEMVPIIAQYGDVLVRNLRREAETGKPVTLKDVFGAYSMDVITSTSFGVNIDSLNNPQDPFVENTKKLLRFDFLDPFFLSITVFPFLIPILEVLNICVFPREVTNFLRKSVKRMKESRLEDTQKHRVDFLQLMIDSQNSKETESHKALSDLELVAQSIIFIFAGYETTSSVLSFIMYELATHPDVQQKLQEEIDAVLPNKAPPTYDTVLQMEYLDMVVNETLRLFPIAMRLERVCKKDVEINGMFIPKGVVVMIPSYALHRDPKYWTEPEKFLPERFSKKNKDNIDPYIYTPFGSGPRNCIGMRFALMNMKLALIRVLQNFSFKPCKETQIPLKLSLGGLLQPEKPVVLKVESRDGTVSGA

The IC50 is the concentration that gives 50% inhibition. A word on the AC50: it is the concentration at which the activity in the assay is half-maximal. As to `COc1ccc2oc(=O)c(C(=O)Oc3ccc(NC(C)=O)cc3)cc2c1`, in [1], the IC50 was 24.5 µM (active). Besides, the AC50 on Cytochrome P450 2C9 was 39.8 µM (inconclusive).

As for `O=C(O)CCn1cc(C=C2C(=O)NC(=O)NC2=O)c(-c2cc3ccccc3oc2=O)n1`, the AC50 in assay [2] is 0.109 µM (active).

For orientation: EC50 means the concentration needed to bring the measured effect to its halfway point. Take `COc1cccc(C(=O)Nc2ccc3[nH]c(O)nc3c2)c1OC`: the EC50 was < 0.1 µM (active) in assay [3] and > 120 µM (not active) in assay [4].

In the case of `CNC(=O)c1cccn(Cc2cccc(C(F)(F)F)c2)c1=O`, the EC50 in [5] was 14.6 µM (active); in [3] it was > 120 µM (not active); in assay [4] it was 42.8 µM (active).

With `CC(C)S(=O)(=O)c1csc(NC(=O)Nc2cc(Cl)ccc2Cl)c1Cl`, the EC50 is 7.69 µM (active) on Streptokinase A, 8.4 µM (active) in the assay on Streptococcus and 1.3 µM (active) in assay [6].

Consider `Fc1ccc(-n2nnnc2S)cc1N1CCCC1`, for which the concentration at half-maximal activity (AC50) in assay [2] is 5.21 µM (active).

With `COc1ccccc1CNCC(=O)NCc1ccc(C)cc1`, the IC50 in assay [1] was 163 µM (active).

For the compound `COc1ccc(CNc2ncc(-c3cccc([N+](=O)[O-])c3)n2C)c(OC)c1OC`, the AC50 in assay [2] was 0.035 µM (active).

For `CCc1ccc(NC(=O)C2CCN(S(=O)(=O)c3ccc4c(c3)NC(=O)CO4)CC2)cc1`, the EC50 in [5], in assay [3] and in assay [4] was > 120 µM (not active) in each case.

By CC50 is commonly meant the concentration that lowers cell viability or growth by half. Turning to `Cc1ccc(-c2csc(NCCc3nc4cc(Cl)c(Cl)cc4n3CCOCCO)n2)cc1`, the CC50 in assay [7] is 9.53 µM (active).

Take `COc1cc(N2CCCC2)c(OC)cc1/C=C(/C#N)c1cccc(Br)c1`: the CC50 in assay [7] was > 50 µM (active).

As to `CC(C)n1cnc2c(NCc3ccccc3)nc(NCc3ccccc3)nc21`, the EC50 on Streptokinase A was > 150 µM (not active); with Streptococcus, > 150 µM (not active); in assay [6], 5.26 µM (active).

As to `Cc1cc(C(=O)CC#N)c(C)n1-c1c(C)n(C)n(-c2ccccc2)c1=O`, the EC50 in [5], in assay [3] and in assay [4] was > 120 µM (not active) in each case.

Take `O=C(Nc1ccc2nn(-c3ccc(F)cc3)nc2c1)c1cccnc1`: the CC50 in [7] was > 50 µM (active).

As for `COc1cc(C(=O)NNC(=S)NC(=O)c2ccccc2C)cc(OC)c1OC`, the EC50 is > 150 µM (not active) on Streptokinase A, 49.5 µM (active) with Streptococcus and 2.06 µM (active) in assay [6].

In the case of `Nc1cccc(Nc2ccccc2)c1`, in [2], the AC50 was 2.5 µM (active).

As to `COc1ccc(N2CCC(CN=C(S)Nc3cc(C)cc(C)c3)C2)cc1` (stereo not given), the IC50 in assay [1] is 108 µM (active).

For `CC(=O)Nc1sc(NC(=O)c2ccc([N+](=O)[O-])cc2)nc1-c1cccs1`, the EC50 (at Streptokinase A; in the assay on Streptococcus; in [6]) was > 150 µM (not active) in each case.

Regarding `CCN(Cc1ccncc1)Cc1ccc(OC)cc1OC`, the IC50 in [1] is 117 µM (active).

Take `FC(F)(F)c1cc(CCN2C(=S)NC[C@@H]2CC2CCCCC2)cc(C(F)(F)F)c1`: the EC50 on Streptokinase A is 7 µM (active).

With `Fc1ccc(-c2ccnc3nc(-n4cccc4)nn23)cc1`, the EC50 was > 120 µM (not active) in [5], 39.7 µM (active) in assay [3] and > 120 µM (not active) in assay [4].

On to `COc1cccc(C2Nc3ccc4ccccc4c3C3=C2C(=O)CCC3)c1O` (stereo not given), for which the values for the concentration giving a half-maximal response (EC50) in assay [5], in assay [3] and in [4] were 11.7 µM (active), 10 µM (active) and 32.1 µM (active), respectively.

With `O=C(NN=C(S)Nc1ccc(Cl)c(Cl)c1)c1cccc([N+](=O)[O-])c1`, the CC50 in [7] is 7.46 µM (active).

Regarding `O=C(O)c1ccc(NC(=O)c2cn(-c3ccccc3)nc2-c2cccc(Cl)c2)cc1`, the CC50 in assay [7] is 33.6 µM (active).

Take `COc1cccc(-n2cnc3cccc(N)c32)c1`: in assay [2], the AC50 is 24.2 µM (active).

For the compound `Cc1[nH]c2ccccc2c1CCNS(=O)(=O)c1ccc(S(N)(=O)=O)cc1`, the AC50 in [2] was 2.77 µM (active).

As to `O=C(c1cnn2c(C(F)(F)F)cc(-c3ccc(F)cc3)nc12)N1CCc2ccccc2C1`, the figures for the EC50 (at Streptokinase A; with Streptococcus; in [6]) were 37 µM (active), > 150 µM (not active) and 14 µM (active), respectively.

Consider `O=C(O)CSc1nnc(NC(=O)c2ccc3c(c2)OCO3)s1`, for which the EC50 in [5] was 62.2 µM (active); in assay [3] it was 13 µM (active); in [4] it was 16.2 µM (active).

On to `Cc1ccc(Nc2nnc(SCC(=O)c3ccc(Br)s3)s2)c(C)c1`, for which the CC50 in assay [7] was 24.4 µM (active).

As for `CC(C)(C)CC(C)(C)Nc1c(-c2ccc(O)cc2)nc2cnccn12`, the EC50 in assay [5] is 107 µM (active); in assay [3] it was 13.9 µM (active); in [4] it was 14.9 µM (active).

Regarding `CN1CCN(C(=S)c2ccc(-c3cccc(Cl)c3Cl)o2)CC1`, in [7], the CC50 was 20.7 µM (active).

With `CC(C)C(=O)Nc1ccc(C(=O)NNC(=S)NC(=O)c2cccs2)cc1`, the EC50 is > 150 µM (not active) on Streptokinase A, 34.8 µM (active) with Streptococcus and 6.98 µM (active) in assay [6].

For the compound `Cc1ccc(OCCN2CCN(C)CC2)c([N+](=O)[O-])c1`, the IC50 in [1] was 75.4 µM (active).

Consider `COc1ccc(C(=O)n2c(N)nc3ccccc32)cc1OC`, for which the EC50 in [8] was 0.429 µM (active).

As to `O=C(Cc1ccc(Cl)cc1)N1CCN(c2ccccc2)CC1`, the AC50 in assay [2] is 17.8 µM (active).

As for `COc1ccc(CCN2CC3=C(C2=O)C(c2ccccc2)NC(=O)N3C)cc1OC` (stereo not given), the EC50 in assay [5] was > 120 µM (not active); in assay [3], 24.4 µM (active); in assay [4], > 120 µM (not active).

As for `CC1CCCCN1S(=O)(=O)c1ccc(NC(=O)c2cccs2)cc1` (stereo not given), the CC50 in assay [7] is 25.1 µM (active).

Take `Nc1ccc2[nH]c(S)nc2c1`: the IC50 in [1] was 19.4 µM (active).

`Cc1ccc(C2Cc3cc(O)c(O)cc3CN2)cc1` (stereo not given): the AC50 in assay [2] is 4.2 µM (active).

`Sc1nnc2n1CCCN2`: in [2], the AC50 is 11.1 µM (active).

Regarding `CN(C)/C=N/c1ncnc2c1cnn2-c1ccc(C(F)(F)F)cn1`, the EC50 (in the assay on H4; in assay [8]) was > 120 µM (not active) in each case.

Regarding `COc1ccc(N)cc1NC(=O)CN1CCOCC1`, the IC50 in [1] was 118 µM (active).

In the case of `COc1ncnc2c1ncn2CCCNc1ccc(C)c(C)c1`, in assay [1], the IC50 is 102 µM (active).

With `Cc1ccc(-n2nc3c(n2)/C(=N/O)CC/C3=N\O)cc1`, the EC50 in assay [8] was 1.05 µM (active).

On to `Oc1ccc(/C=N/Nc2cccc3cccnc23)c(O)c1`, for which the EC50 in the assay with H4 was 18.7 µM (active).

In the case of `OCCN(/C=N/C1=NN(c2cccc(C(F)(F)F)c2)CC1)CCO`, the results for the AC50 at Cytochrome P450 3A4 and at Cytochrome P450 2C9 were 14.1 µM (inconclusive) and 0.0224 µM (inconclusive), respectively. Moreover, in [1], the IC50 was 30.9 µM (active).

Consider `COc1cc(/C=C/c2ccc(O)cc2)cc(OC)c1` [PTEROSTILBENE], for which the half-maximal activity concentration (AC50) in [2] was 0.778 µM (active).
